Reference: US12201633B2, “Compounds and methods for treatment of visceral pain” (Arena Pharmaceuticals, Inc., priority 2017, dated 2025)

What was measured:
[1] = system: rats following ligation of spinal nerves; details: cited from earlier work
[2] = system: acute and chronic pain from chemical, mechanical, and thermal pain stimuli; details: animal studies; cited from earlier work
[3] = target: T1, human CB2 receptor (Homo sapiens, UniProt P34972); assay: PathHunter β-arrestin assay, CB2
[4] = target: T1, human CB2 receptor; assay: HTRF assay for direct cAMP measurement, CB2; type: cell-based; parameters: 93-0164 (CHO-K1 EA-Arrestin parental line); host or cells: CHO-K1 EA-Arrestin, clone #61
[5] = target: T2, hCB1 (Homo sapiens, UniProt P21554); assay: HTRF assay for direct cAMP measurement, CB1; type: cell-based; parameters: 93-0164 (CHO-K1 EA-Arrestin parental line); host or cells: CHO-K1 EA-Arrestin, clone #3
Description: Compounds were also screened for agonists and inverse agonists of the CB1 receptor (e.g., human CB1 receptor) using HTRF® assay for direct cAMP measurement (Gabriel et al., ASSAY and Drug Development Technologies, 1:291-303, 2003) in recombinant CHO-K1 cells stably transfected with the CB1 receptor. […] An agonist of the CB1 receptor was detected in the HTRF® assay for direct cAMP measurement as a compound which decreased cAMP concentration. An inverse agonist of the CB1 receptor was detected in the HTRF® assay for direct cAMP measurement as a compound which increased cAMP concentration. The HTRF® assay also was used to determine EC50 values for CB1 receptor agonists and inverse agonists.
Principle of the assay: The HTRF® assay kit was purchased from Cisbio-US, Inc. (Bedford, MA; Catalog #62AM4PEC). The HTRF® assay supported by the kit is a competitive immunoassay between endogenous cAMP produced by the CHO-K1 cells and tracer cAMP labeled with the dye d2. The tracer binding is visualized by a monoclonal anti-cAMP antibody labeled with Cryptate. The specific signal (i.e., fluorescence resonance energy transfer, FRET) is inversely proportional to the concentration of unlabeled cAMP in the standard or sample.
The fluorescence ratio of the samples (test compound or compound buffer) was calculated and used to deduce respective cAMP concentrations by reference to the cAMP standard curve. […]

[6] = target: T2, hCB1; assay: PathHunter β-arrestin assay, CB1
[7] = target: T2, hCB1; assay: Radioligand binding assay, hCB1; details: Table C
[8] = system: male Sprague-Dawley rats, STZ-induced PDPN; assay: Streptozotocin-induced painful diabetic peripheral neuropathy (PDPN) model; type: in vivo, rat; details: 10 mg/kg orally in 0.5% methylcellulose; 1, 4 and 6 hours post-dosing; FIG. 9, FIG. 10
Description: Male Sprague-Dawley rats were injected intraperitoneally with 50 mg/kg of streptozotocin (STZ) in sodium citrate buffer. 10% sucrose water was provided ad libitum for the first 48 hours post-STZ followed by regular drinking water. Rats were monitored once weekly for blood glucose levels and body weights. Development of tactile allodynia over time was analyzed using Von Frey filaments and a 50% withdrawal threshold was determined using Dixon's up-down procedure. […] Tactile allodynia was evaluated at 1, 4 and 6 hours post-dosing.

T2 sequence (P21554 whole entry): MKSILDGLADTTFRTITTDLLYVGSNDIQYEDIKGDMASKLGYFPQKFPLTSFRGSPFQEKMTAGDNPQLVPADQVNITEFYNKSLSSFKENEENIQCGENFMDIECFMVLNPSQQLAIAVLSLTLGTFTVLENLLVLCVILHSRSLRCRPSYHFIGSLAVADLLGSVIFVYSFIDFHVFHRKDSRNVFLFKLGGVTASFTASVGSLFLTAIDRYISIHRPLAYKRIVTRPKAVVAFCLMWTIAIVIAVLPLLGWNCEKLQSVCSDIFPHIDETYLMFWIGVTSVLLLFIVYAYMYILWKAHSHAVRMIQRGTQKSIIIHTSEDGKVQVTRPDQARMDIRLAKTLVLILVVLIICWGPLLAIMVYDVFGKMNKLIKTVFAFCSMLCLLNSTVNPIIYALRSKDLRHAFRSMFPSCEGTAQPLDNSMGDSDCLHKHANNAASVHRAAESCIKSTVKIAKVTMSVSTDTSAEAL
T1 sequence (P34972 whole entry): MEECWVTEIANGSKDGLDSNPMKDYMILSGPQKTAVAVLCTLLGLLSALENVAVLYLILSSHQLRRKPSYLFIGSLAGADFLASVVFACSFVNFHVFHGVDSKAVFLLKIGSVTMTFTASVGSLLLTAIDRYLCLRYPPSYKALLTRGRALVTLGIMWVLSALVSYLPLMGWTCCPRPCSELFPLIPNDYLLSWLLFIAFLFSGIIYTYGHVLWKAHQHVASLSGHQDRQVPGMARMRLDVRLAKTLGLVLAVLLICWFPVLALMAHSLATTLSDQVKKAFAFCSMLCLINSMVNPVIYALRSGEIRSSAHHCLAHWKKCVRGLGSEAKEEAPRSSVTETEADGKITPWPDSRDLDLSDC

SMILES	EC50 [3]	EC50 [4]	EC50 [6]	further results
COc1ccc(C(=O)c2c(C)n(CCN3CCOCC3)c3cc(I)ccc23)cc1 [AM630]	–	–	–	Effect on the reversal of hypersensitivity by AM1241 [1]: inhibited
CCCCCCC(C)(C)c1ccc([C@@H]2C[C@H](O)CC[C@H]2CCCO)c(O)c1 [CP55,940]	–	–	–	Efficacy against acute and chronic pain [2]: effective against acute and chronic pain
CC(C)(CO)NC(=O)c1nn(-c2ccc(Cl)cn2)c2c1C[C@H]1C[C@@H]21 [Compound 151, (1aR,5aR)-2-(5-Chloro-pyridin-2-yl)-1a,2,5,5a-tetrahydro-1H-2,3-diaza-cyclopropa[a]pentalene-4-carboxylic acid (2-hydroxy-1,1-dimethyl-ethyl)-amide]	92.1 nM	3.83 nM	–	EC50 [5]: 72500 nM
CC(C)(C)NC(=O)c1nn(-c2cnccn2)c2c1C[C@H]1C[C@@H]21 [Compound 593, (1aR,5aR)-2-Pyrazin-2-yl-1a,2,5,5a-tetrahydro-1H-2,3-diaza-cyclopropa[a]pentalene-4-carboxylic acid tert-butylamide]	34.6 nM	7.15 nM	1330 nM	–
CC(C)(CO)NC(=O)c1nn(-c2cc(C#N)ccn2)c2c1C[C@H]1C[C@@H]21 [Compound 644, (1aR,5aR)-2-(4-Cyano-pyridin-2-yl)-1a,2,5,5a-tetrahydro-1H-2,3-diaza-cyclopropa[a]pentalene-4-carboxylic acid (2-hydroxy-1,1-dimethyl-ethyl)-amide]	4.69 nM	0.7 nM	4470 nM	–
CNC(=O)[C@@H](NC(=O)c1nn(-c2cnccn2)c2c1C[C@H]1C[C@@H]21)C(C)(C)C [Compound 667, (1aR,5aR)-2-Pyrazin-2-yl-1a,2,5,5a-tetrahydro-1H-2,3-diaza-cyclopropa[a]pentalene-4-carboxylic acid [2,2-dimethyl-1-((S)-methylcarbamoyl)-propyl]-amide]	1.53 nM	0.3 nM	145 nM	EC50 [5]: 195 nM
CNC(=O)[C@@H](NC(=O)c1nn(-c2c[n+]([O-])ccn2)c2c1C[C@@H]1C[C@H]21)C(C)(C)C [Compound 701, (1aS,5aS)-2-(4-Oxy-pyrazin-2-yl)-1a,2,5,5a-tetrahydro-1H-2,3-diaza-cyclopropa[a]pentalene-4-carboxylic acid ((S)-2,2-dimethyl-1-methylcarbamoyl-propyl)-amide]	–	–	–	Ki [7]: 105 nM
CNC(=O)[C@@H](NC(=O)c1nn(-c2c[n+]([O-])ccn2)c2c1C[C@H]1C[C@@H]21)C(C)(C)C [Compound 704, (1aR,5aR)-2-(4-Oxy-pyrazin-2-yl)-1a,2,5,5a-tetrahydro-1H-2,3-diaza-cyclopropa[a]pentalene-4-carboxylic acid ((S)-2,2-dimethyl-1-methylcarbamoyl-propyl)-amide]	0.8 nM	0.2 nM	228 nM	–
COC(=O)[C@@H](NC(=O)c1nn(-c2c[n+]([O-])ccn2)c2c1C[C@H]1C[C@@H]21)C(C)(C)C [Compound 746, (S)-3,3-Dimethyl-2-{[(1aR,5aR)-2-(4-oxy-pyrazin-2-yl)-1a,2,5,5a-tetrahydro-1H-2,3-diaza-cyclopropa[a]pentalene-4-carbonyl]-amino}-butyric acid methyl ester]	0.7 nM	–	142 nM	–
O=C(N[C@H](CO)C1CCOCC1)c1nn(-c2c[n+]([O-])ccn2)c2c1C[C@H]1C[C@@H]21 [Compound 841, (1aR,5aR)-2-(4-Oxy-pyrazin-2-yl)-1a,2,5,5a-tetrahydro-1H-2,3-diaza-cyclopropa[a]pentalene-4-carboxylic acid [(S)-2-hydroxy-1-(tetrahydro-pyran-4-yl)-ethyl]-amide]	17.5 nM	1.4 nM	1140 nM	–
O=C(NC(CO)(CF)CF)c1nn(-c2cc(Cl)ccn2)c2c1C[C@@H]1C[C@H]21 [Compound 889, (1aS,5aS)-2-(4-Chloro-pyridin-2-yl)-1a,2,5,5a-tetrahydro-1H-2,3-diaza-cyclopropa[a]pentalene-4-carboxylic acid (2-fluoro-1-fluoromethyl-1-hydroxymethyl-ethyl)-amide]	8.6 nM	–	4070 nM	–
N#Cc1ccnc(-n2nc(C(=O)N[C@H](CO)CC(F)(F)F)c3c2[C@H]2C[C@H]2C3)c1 [Compound 891, (1aS,5aS)-2-(4-Cyano-pyridin-2-yl)-1a,2,5,5a-tetrahydro-1H-2,3-diaza-cyclopropa[a]pentalene-4-carboxylic acid ((S)-3,3,3-trifluoro-1-hydroxymethyl-propyl)-amide]	16.2 nM	–	11800 nM	–
CC(C)(CF)NC(=O)c1nn(-c2cc(Cl)ccn2)c2c1C[C@@H]1C[C@H]21 [Compound 897, (1aS,5aS)-2-(4-Chloro-pyridin-2-yl)-1a,2,5,5a-tetrahydro-1H-2,3-diaza-cyclopropa[a]pentalene-4-carboxylic acid (2-fluoro-1,1-dimethyl-ethyl)-amide]	3.79 nM	–	951 nM	–
CC(C)(C)[C@@H](CF)NC(=O)c1nn(-c2c[n+]([O-])ccn2)c2c1C[C@H]1C[C@@H]21 [Compound 918, (1aR,5aR)-2-(4-Oxy-pyrazin-2-yl)-1a,2,5,5a-tetrahydro-1H-2,3-diaza-cyclopropa[a]pentalene-4-carboxylic acid ((S)-1-fluoromethyl-2,2-dimethyl-propyl)-amide]	1.01 nM	–	437 nM	–
CC(C)(NC(=O)c1nn(-c2c[n+]([O-])ccn2)c2c1C[C@@H]1C[C@H]21)C(F)(F)F [Compound 919, (1aS,5aS)-2-(4-Oxy-pyrazin-2-yl)-1a,2,5,5a-tetrahydro-1H-2,3-diaza-cyclopropa[a]pentalene-4-carboxylic acid (2,2,2-trifluoro-1,1-dimethyl-ethyl)-amide]	2.35 nM	0.2 nM	–	Analgesic efficacy (tactile allodynia, 50% withdrawal threshold) [8]: robust and sustained analgesic efficacy over 6 hours
COc1ccc2c(c1)c(CCN1CCOCC1)c(C)n2C(=O)c1cccc(Cl)c1Cl [GW405833]	–	–	–	Hypersensitivity to mechanical stimuli ([1]; administered systemically): significantly reverses hypersensitivity to mechanical stimuli
CCCCCc1cc(O)c2c(c1)OC(C)(C)[C@@H]1CCC(C)=C[C@@H]21 [THC]	–	–	–	Efficacy against acute and chronic pain [2]: effective against acute and chronic pain
Cc1c(C(=O)c2cccc3ccccc23)c2cccc3c2n1[C@H](CN1CCOCC1)CO3 [WIN 55212-2]	–	–	–	Efficacy against acute and chronic pain [2]: effective against acute and chronic pain
CCCCC/C=C\C/C=C\C/C=C\C/C=C\CCCC(=O)NCCO [anandamide]	–	–	–	Efficacy against acute and chronic pain [2]: effective against acute and chronic pain
